From patent US20220275053A1, “MODIFIED […] PEPTIDE LIGANDS” (BicycleTx Limited, priority 2019, published 2022) come the findings set out here.

*1 amine or outer side, *2 acyl side, *3 side chain or, on linkers, in order; H or OH if unused. Where a SMILES comes first, the peptide text is derived from it. Bridges are numbered along the chain shown (N, C = ends). Roman numbers before positions name the chains, in order. [ ]: non-standard residue; d: D form. X1 = N=c1ccc2c(-c3ccc(C(=O)NCCOCCOCCN(CCOCCOCCOCCn4cc(CCC(=O)[*:1])nn4)CCOCCOCCOCCn4cc(CCC(=O)[*:2])nn4)cc3C(=O)O)c3ccc(N)c(S(=O)(=O)O)c3oc-2c1S(=O)(=O)O; TATA = O=C(CC[*:1])N1CN(C(=O)CC[*:2])CN(C(=O)CC[*:3])C1; tBuAla = CC(C)(C)C[C@H](N)C(=O)O; Nle = CCCC[C@H](N)C(=O)O

The target of one test is T1, CD137 (Homo sapiens, UniProt Q07011).
T1 construct: Human peripheral blood mononuclear cells (PBMCs) were isolated from buffy coats from two donors; endogenous in cells
Kind of test: BCY15416 direct binding to CD4 and CD8 positive T-cells (CD3 stimulated PBMCs, flow cytometry). On the procedure:
To evaluate the affinity of a CD137 dimeric Bicycle® peptide conjugated to Alexa Fluor® 488, herein referred to as BCY15416, a binding assay utilizing CD3 stimulated primary peripheral blood mononuclear cells (PBMCs) was implemented.
On the day of the experiment, medium was prepared by supplementing RPMI-1640 (Gibco™ 11875-093; with L-glutamine) with 10% heat-inactivated fetal bovine serum (FBS; Corning® 35-011-CV), 10 mM HEPES (Gibco™ 15-630-080), and 1% Penicillin Streptomycin (Corning™ 30-002-CI), herein referred to as working medium. Previously isolated human peripheral blood mononuclear cells (PBMCs), from whole blood, were quick thawed in a water bath and washed once at 500 rpm for 5 minutes in 10 mL of prewarmed working medium. PBMC pellet was then resuspended in working medium at a concentration of 3×10^6 cells/mL. Subsequently, 100 μL of cell suspension was plated in a flat-bottom tissue-culture coated 96-well plate (Greiner CellStar® 655180). Anti-human CD3 (200 ng/mL; BioLegend® 317347; clone OKT3) was added to the cell plate (100 μL/well) at a final concentration of 100 ng/mL Whereas, for unstimulated controls 100 μL of working medium was added. Cells were incubated overnight (12-24 hours) at 37° C., 5% CO2.
Plates were then incubated for 1 hour at 37° C., 5% CO2. Post-incubation, plate was centrifuged at 500 rpm for 5 minutes and supernatant discarded. Samples were then washed once in 200 μL of 1× phosphate buffer saline (PBS; Gibco™ 10-010-023) at 500 rpm for 5 minutes. Cells were resuspended in 200 μL of PBS and transferred to a 96-well V-bottom polypropylene plate (Greiner Bio-One 651201). Samples were then centrifuged at 500 rpm for 5 minutes and supernatant was discarded.
Preparation of samples for flow cytometry: Zombie Violet™ Fixable Viability Dye (BioLegend® 423113) was prepared as a 1:1000 dilution in PBS and 100 μL of viability dye was added to each well and incubated in the dark at 4° C. for 30 minutes. Subsequently, wells were washed with 100 μL of PBS for 5 minutes at 500 rpm and supernatant was discarded. Next, human TruStain FcX™ block (BioLegend® 422302) was prepared by diluting 1.5 μL of FcX in 25 μL of stain buffer (1×PBS supplemented with 2% FBS). Fc block solution (25 μL/well) was incubated at room temperature (RT) for 10 minutes in the dark. […] Cells resuspended in 200 μL of stain buffer were kept at 4° C. and in the dark until read by BD FACSCelesta™ flow cytometer and FCS files were analyzed in FlowJo™.
Cells were gated on lymphocytes→singlets→live→CD4+ or CD8+→CD137+/− and the geometric mean of Alexa Fluor® 488 (conjugated to BCY15416) was calculated from the CD137+ and CD137− populations shown below. […] Calculated binding affinity (kd,app) for each donor appear in Table 5.
(In flow cytometry, cells or beads pass a laser one at a time.)

The next test deals with T2, human CD137 (human, UniProt Q07011 24-255).
T2 construct: whole, on cells; Endogenous receptor on CD3-stimulated human PBMCs or purified CD8+ T cells; also called CD137 receptor; 4-1BB
Briefly: flow cytometry, direct binding to activated human CD8+/CD137+ T cells.

T2 sequence (Q07011 24-255): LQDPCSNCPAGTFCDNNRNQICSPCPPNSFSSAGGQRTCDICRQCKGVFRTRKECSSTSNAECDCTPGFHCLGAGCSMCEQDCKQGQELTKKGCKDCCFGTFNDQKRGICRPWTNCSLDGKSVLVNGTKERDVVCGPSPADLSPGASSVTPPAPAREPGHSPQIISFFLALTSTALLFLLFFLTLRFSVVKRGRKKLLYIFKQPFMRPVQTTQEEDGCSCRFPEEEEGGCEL
T1 sequence (Q07011 24-255): as above

With `CCCC[C@@H]1NC(=O)[C@H](Cc2ccc(O)cc2)NC(=O)[C@@H]2CCCN2C(=O)[C@H](CC(=O)O)NC(=O)[C@H](C)NC(=O)[C@H](Cc2ccccc2)NC(=O)[C@@H]2CSCCC(=O)N3CN(CN(C3)C(=O)CCSC[C@@H](C(=O)N[C@@H](C)C(N)=O)NC1=O)C(=O)CCSC[C@H](NC(C)=O)C(=O)N[C@@H](CC(C)(C)C)C(=O)N1CCC[C@H]1C(=O)N[C@@H](CCC(=O)O)C(=O)N[C@H](CCCCNC(=O)CCc1cn(CCOCCOCCOCCN(CCOCCOCCNC(=O)c3ccc(-c4c5ccc(=N)c(S(=O)(=O)O)c-5oc5c(S(=O)(=O)O)c(N)ccc45)c(C(=O)O)c3)CCOCCOCCOCCn3cc(CCC(=O)NCCCC[C@H]4NC(=O)[C@H](CCC(=O)O)NC(=O)[C@@H]5CCCN5C(=O)[C@H](CC(C)(C)C)NC(=O)[C@@H](NC(C)=O)CSCCC(=O)N5CN6CN(C5)C(=O)CCSC[C@H](NC(=O)[C@H](Cc5ccc(O)cc5)NC(=O)[C@@H]5CCCN5C4=O)C(=O)N[C@@H](Cc4ccccc4)C(=O)N[C@@H](C)C(=O)N[C@@H](CC(=O)O)C(=O)N4CCC[C@H]4C(=O)N[C@@H](Cc4ccc(O)cc4)C(=O)N[C@@H](CCCC)C(=O)N[C@H](C(=O)N[C@@H](C)C(N)=O)CSCCC6=O)nn3)nn1)C(=O)N1CCC[C@H]1C(=O)N[C@@H](Cc1ccc(O)cc1)C(=O)N2` [BCY15416] (I: Ac-C[tBuAla]PE[dK]PYCFADPY[Nle]CA-NH2 / II: Ac-C[tBuAla]PE[dK]PYCFADPY[Nle]CA-NH2; linker I:1-I:8-I:15, II:1-II:8-II:15 via TATA; linker I:5-II:5 via X1; C-terminus assumed), the “binding to CD137+ T-cells (Alexa Fluor 488 geometric mean)” value on CD137 (CD137+CD4+ and CD137+CD8+ T-cells, three human PBMC donors, FIG. 6) is “binding exclusively to the CD137+CD4+ T-cells and CD137+CD8+ T-cells, in a dose-dependent manner”. The “binding to CD137− T cells” value at CD137 (CD137− CD4 and CD8 T cells, FIGS. 6A and 6B) was “does not bind”. In addition, the “binding affinity in CD137− populations” value at CD137 (CD137− populations for both CD4+ and CD8+) is on record as “unable to be calculated”. For the same molecule, the “binding affinity (range in words)” value on CD137 (both CD137+CD4+ and CD137+CD8+ populations) is reported as “sub-nanomolar range”.

B1: BCY9931 (peptide)
peptide: ACIEEGQYCFADPYXCX
modifications: N-terminal acetyl; Nle (norleucine) at position 12 of the core; C-terminal Dap(Lys(PYA)) amide (CONH2); the three Cys (Ci, Cii, Ciii) cyclised on the TATA scaffold; joined through PYA to spacer SA (n = 23) on central hinge moiety A; Alexa Fluor 488 conjugated to one of the four peptides (formula (I))
notes: also called fluorescent CD137 multimer; fluorescent tetramer
B1: the binding result in the test with human CD137 was “binds”.

B2: BCY7340 (peptide)
peptide: CIEEGQYCFADPYMCAX
modifications: N-terminal acetyl; C-terminal Pra (propargylglycine) amide (CONH2); the three Cys cyclised on the TATA scaffold; joined through Pra to spacer SA (n = 23) on central hinge moiety C; fluorescein on the hinge without spacer (formula (II))
notes: also called fluorescent CD137 multimer; fluorescent CD137 dimer
In the case of B2, the binding result with human CD137 is “binds”.

B3: BCY9932 (peptide)
peptide: ACIEEGQYCFADPYXCX
modifications: N-terminal acetyl; Nle (norleucine) at position 12 of the core; C-terminal Dap(PYA) amide (CONH2); the three Cys cyclised on the TATA scaffold; joined through PYA to spacer SA (n = 10) on central hinge moiety B; Alexa Fluor 488 on the hinge without spacer (formula (II))
notes: also called fluorescent CD137 multimer; fluorescent trimer
In the case of B3, the binding result in the test with human CD137 is recorded as “binds”.
